PubChem BioAssay AID720592 (Broad Institute, 2013)
Calls of active or inactive are those of the source. No rule for the calls is given here.

Molecular target: BioA (adenosylmethionine-8-amino-7-oxononanoate aminotransferase), Mycobacterium tuberculosis
Assay: Mtb BioA aminotransferase inhibitors, dose response, biochemical, plate reader, dry powder samples (AID 720592)
Conditions: purified Mtb BioA enzyme, plate reader activity; for inhibition: at 10 µM (top of the series)

## CC(=O)c1ccc(N2CCN(C(=O)c3ccc4c(c3)OCO4)CC2)cc1
  inhibition: inactive

## Cc1ccc(/C=C(\CCC(=O)O)c2nc3ccccc3s2)cc1[N+](=O)[O-]
  inhibition: inactive

## CCN(CC)c1ccc2cc(C(=O)c3cccs3)c(=O)oc2c1
  inhibition: inactive

## COc1cccc(C(=O)N2CCN(c3ccc(C(C)=O)cc3)CC2)c1
  inhibition: inactive

## O=C(Nc1ccc(Cl)c(-c2nc3ccccc3[nH]2)c1)c1cccnc1
  inhibition: inactive

## O=C(O)CC/C(=C\c1ccccc1[N+](=O)[O-])c1nc2ccccc2s1
  inhibition: inactive

## Cc1ccc(/C=C(\CCC(=O)O)c2nc3ccccc3s2)cc1
  inhibition: inactive

## Cc1ccc(-c2cc(C(F)(F)F)n3nc(C(=O)Nc4cccnc4)cc3n2)cc1
  inhibition: inactive

## O=C(Nc1cccnc1)c1cnn2c(C(F)(F)F)cc(-c3ccccc3)nc12
  AC50: > 20 µM (inactive)

## CCOC(=O)N1CCN(C(=O)Nc2ccc3snnc3c2)CC1
  inhibition: inactive

## O=C(Nc1ccc2snnc2c1)N1CCOCC1
  inhibition: inactive

## CC(=O)c1ccc(N2CCN(C(=O)c3cccc(Cl)c3)CC2)cc1
  AC50: > 20 µM (inactive)

## COc1ccc(-c2cc(C(F)(F)F)n3nc(C(=O)Nc4cccnc4)cc3n2)cc1
  inhibition: inactive

## Cc1ccc(NC(=O)N2CCN(c3ccccc3)CC2)cc1
  inhibition: inactive

## O=C(Nc1ccc2[nH]ccc2c1)N1CCN(c2ccccc2)CC1
  inhibition: inactive

## O=C(Nc1cccnc1)c1cc2nc(-c3cccs3)cc(C(F)(F)F)n2n1
  inhibition: inactive

## COC(=O)c1c(C(=O)OC)c(-c2cccc(F)c2)n2c1CS(=O)C2 (stereo not given)
  inhibition: inactive

## Cc1ccc(/C=C(\CC(=O)O)c2nc3ccccc3s2)cc1[N+](=O)[O-]
  inhibition: inactive

## CC(=O)c1ccc(N2CCN(C(=O)c3cccnc3)CC2)cc1
  inhibition: inactive

## O=C(Nc1cccc(F)c1)N1CCN(c2ccccc2)CC1
  inhibition: inactive

## O=C(c1ccc2c(c1)OCO2)N1CCN(c2ccccc2)CC1
  inhibition: inactive

## COc1cc(/C=C/C(=O)Nc2cccnc2)cc(OC)c1OC
  inhibition: inactive

## O=C(Nc1cccnc1)N1CCN(c2ccccc2)CC1
  inhibition: inactive

## CC(=O)c1ccc(N2CCN(Cc3ccc4c(c3)OCO4)CC2)cc1
  inhibition: inactive

## CC(=O)c1ccc(N2CCN(C(=O)c3ccc4c(c3)OCCO4)CC2)cc1
  inhibition: inactive

## O=C(Nc1ccc2snnc2c1)N1CCCCC1
  inhibition: inactive

## O=C(Nc1ccc2snnc2c1)N1CCN(c2ccccc2)CC1
  inhibition: inactive

## O=C(Nc1cccnc1)c1cnn2c(C(F)F)cc(C3CC3)nc12
  inhibition: inactive

## Cc1cccc(/C=C(\CCC(=O)O)c2nc3ccccc3s2)c1
  inhibition: inactive

## O=C(c1ccc2c(c1)OCO2)N1CCN(c2ccc(F)cc2)CC1
  inhibition: inactive

## CC(=O)c1ccc(N2CCN(C(=O)c3ccc(C)cc3)CC2)cc1
  inhibition: inactive

## CC(=O)c1ccc(N2CCN(C(=O)c3ccc(Cl)cc3)CC2)cc1
  inhibition: inactive

## CC(=O)c1ccc(N2CCN(C(=O)c3ccc4ncsc4c3)CC2)cc1
  inhibition: inactive

## CCc1ccc(C(=O)N2CCN(Cc3ccc4c(c3)OCO4)CC2)cc1
  inhibition: inactive

## Cc1ccc(/C=C(\CCCC(=O)O)c2nc3ccccc3s2)cc1[N+](=O)[O-]
  inhibition: inactive

## Cc1nc2ccc(NC(=O)N3CCN(c4ccccc4)CC3)cc2s1
  inhibition: inactive

## O=C(O)CC/C(=C\c1ccc([N+](=O)[O-])cc1)c1nc2ccccc2s1
  inhibition: inactive

## O=C(COc1ccc2ccc(=O)oc2c1)N1CCN(c2ccc(F)cc2)CC1
  inhibition: inactive

## O=C(Nc1ccc(Cl)cc1)c1cc2nc(C3CC3)cc(C(F)(F)F)n2n1
  inhibition: inactive

## Cc1nc2cc(NC(=O)N3CCN(c4ccccc4)CC3)ccc2o1
  inhibition: inactive

## O=C(Nc1ccc(F)cc1)N1CCN(c2ccccc2)CC1
  AC50: > 20 µM (inactive)

## CC(=O)c1ccc(N2CCN(C(=O)c3ccc(Br)cc3)CC2)c(F)c1
  inhibition: inactive

## O=C(c1ccc2c(c1)OCO2)N1CCN(Cc2ccccc2)CC1
  inhibition: inactive

## COc1cccc(NC(=O)CCC2CCN(C(=O)c3ccc(C(C)=O)s3)CC2)c1
  inhibition: inactive

## O=C(Nc1ccncc1)c1cc2nc(C3CC3)cc(C(F)F)n2n1
  inhibition: inactive

## Cc1cc(C)n2nc(C(=O)Nc3cccnc3)cc2n1
  inhibition: inactive

## CCc1ccc(N2CCN(C(=O)c3ccc4c(c3)OCO4)CC2)cc1
  inhibition: inactive

## COc1cccc(NC(=O)N2CCN(c3ccccc3)CC2)c1
  inhibition: inactive

## CC(=O)c1ccc(N2CCN(C(=O)c3ccccc3)CC2)cc1
  inhibition: inactive

## COc1ccc(NC(=O)N2CCN(c3ccccc3)CC2)cc1
  AC50: > 20 µM (inactive)

## CC(=O)c1ccc(N2CCN(C(=O)c3cccc(F)c3)CC2)cc1
  inhibition: inactive

## CC(=O)c1ccc(N2CCN(C(=O)c3ccc(F)cc3)CC2)cc1
  inhibition: inactive

## COc1ccc(C(=O)N2CCN(c3ccc(C(C)=O)cc3)CC2)cc1
  AC50: > 20 µM (inactive)

## O=C(c1ccc2c(c1)OCO2)N1CCN(c2ccc(Cl)cc2)CC1
  AC50: > 20 µM (inactive)

## O=C(Nc1ccccc1)N1CCN(c2ccccc2)CC1
  inhibition: inactive

## CC(C)(C)c1ccc(C(=O)N2CCN(c3ccc4c(c3)OCO4)CC2)cc1
  inhibition: inactive

## Cc1ccccc1/C=C(\CCC(=O)O)c1nc2ccccc2s1
  AC50: > 20 µM (inactive)

## Cc1cc(C)n2nc(C(=O)Nc3cccnc3)nc2n1
  AC50: > 20 µM (inactive)

## COc1ccc(N2CCN(C(=O)c3ccc4c(c3)OCO4)CC2)cc1
  inhibition: inactive

## O=C(Nc1cccc(Cl)c1)N1CCN(c2ccccc2)CC1
  inhibition: inactive
